Results on four compounds are retold here after patent publication US20070299091A1, “Azaindole Carboxamides” (priority 2004, published 2007).

One data set deals with 5-HT2 (Sus scrofa, UniProt P50129). Description: radioligand binding, [3H]ketanserin, porcine cortex-membrane preparations. As to conditions: for Ki: porcine 5-HT2, [3H]ketanserin, average of 2 experiments in triplicate; for D3-selectivity 5-HT2/D3: ratio of Ki values 5-HT2/D3. As for the experimental part:
(§1) Measurement of the bonding strengths of the compounds to the serotonin-receptor subtypes 5-HT1A and 5-HT2 was carried out according to methods described by us (Heindl, C. et al. Tetrahedron: Asymmetry 2003, 14, 3141-3152). For this we incubated porcine cortex-membrane preparations with the radioligands [^3H]8-OH-DPAT (for 5-HT1A) or [^3H]ketanserin (5-HT2) and the compounds in various concentrations. In the same way the affinity of the test compounds to the porcine α1-receptor was investigated, wherein porcine cortex-membrane preparations and the α1-selective radioligand [^3H]prazosin were used.

A further data set concerns the target T1, D1-receptor (Sus scrofa, UniProt P50130).
T1 construct: native membrane homogenates, obtained from porcine striatum; from tissue; host or cells: porcine striatum
Description: radioligand binding, D1 receptor, [3H]SCH 23390, porcine striatum membrane homogenates. As to conditions: porcine D1, [3H]SCH 23390; average of 2-6 experiments in triplicate. As for the experimental part:
(§2) The biological activities of the compounds according to the invention were determined in radioligand bonding investigations. All radioligand experiments were performed according to methods described by us (Hübner, H. et al. J. Med. Chem. 2000, 43, 756-762). For the measurement of the affinities to the receptors of the D2-family membrane homogenates of Chinese hamster ovary cells (CHO cells) were used, which stably express the human D2long-, the human D2short- (Hayes, G. et al. Mol. Endocrinol. 1992, 6, 920-926), the human D3- (Sokoloff, P. et al. Eur. J. Pharmacol. 1992, 225, 331-337) or the human D4.4-receptor sub-type, (Asghari, V. J. Neurochem. 1995, 65,1157-1165) respectively. Basically the binding assays took place by incubation of the receptor homogenates with the radioligand [^3H]spiperone and the compounds under investigation in various concentrations. Determination of the affinities to the D1-receptor took place with native membrane homogenates, obtained from porcine striatum, and the D1-selective radioligands [^3H]SCH 23390.

Another data set deals with T2, dopamine-D3-receptor (Homo sapiens, UniProt P35462).
T2 construct: expressed in transfected cells
Description: mitogenesis assay, [3H]thymidine incorporation in D3 receptor-expressing cells. It counts as cell-based. As to conditions: for EC50: dose-effect curve from average values of all individual trials, seven concentrations in quadruplicate; for classification of intrinsic activity at the D3-receptor: mitogenesis assay, compared with full agonist quinpirol; for agonistic activity: with reference to the maximum effect of the full agonist Quinpirol. As for the experimental part:
Here various concentrations of the compound under investigation were incubated with D3 receptor-expressing cells and then the receptor-mediated stimulation of the mitogenesis rate was measured by incorporation of the radioactive marker [^3H]thymidine.
(In general: Incorporation of labelled thymidine or its analogues reports DNA synthesis.)

The target in the next data set is T3, human D4.4-receptor (Homo sapiens, UniProt P21917).
T3 construct: expressed in transfected cells
T3 sequence (P21917 1-419): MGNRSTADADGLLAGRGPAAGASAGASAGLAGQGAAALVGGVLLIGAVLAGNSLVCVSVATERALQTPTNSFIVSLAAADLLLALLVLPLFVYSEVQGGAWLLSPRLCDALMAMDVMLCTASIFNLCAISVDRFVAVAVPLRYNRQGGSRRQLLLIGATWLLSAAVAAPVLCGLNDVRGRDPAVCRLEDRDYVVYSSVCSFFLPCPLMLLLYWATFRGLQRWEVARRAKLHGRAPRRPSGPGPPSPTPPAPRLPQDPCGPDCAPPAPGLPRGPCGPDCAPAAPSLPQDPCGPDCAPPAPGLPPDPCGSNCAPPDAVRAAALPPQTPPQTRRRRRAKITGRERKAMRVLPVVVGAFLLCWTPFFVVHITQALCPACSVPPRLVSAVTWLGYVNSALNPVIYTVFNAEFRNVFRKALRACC
Description: radioligand binding, [3H]spiperone, CHO cell membrane homogenates expressing human D4.4. As to conditions: for Ki: human D4.4, [3H]spiperon, average of 2-6 experiments in triplicate; for D3-selectivity D4.4/D3: ratio of Ki values D4.4/D3. As for the experimental part: (§3) The biological activities of the compounds according to the invention were determined in radioligand bonding investigations. […] Mol. […] Neurochem. […] Basically the binding assays took place by incubation of the receptor homogenates with the radioligand [^3H]spiperone and the compounds under investigation in various concentrations.

A further data set deals with T4, human D2long (Homo sapiens, UniProt P14416).
T4 construct: expressed in transfected cells
Description: radioligand binding, [3H]spiperone, CHO cell membrane homogenates expressing human D2long. As to conditions: for Ki: human D2long, [3H]spiperon, average of 2-6 experiments in triplicate; for D3-selectivity D2long/D3: ratio of Ki values D2long/D3. As for the experimental part:
as §3

In data set [1] the target is T5, 5-HT1A (Sus scrofa, UniProt A0A4X1UTF5).
T5 construct: we incubated porcine cortex-membrane preparations with the radioligands; from tissue; host or cells: porcine cortex
T5 sequence (A0A4X1UTF5 1-422): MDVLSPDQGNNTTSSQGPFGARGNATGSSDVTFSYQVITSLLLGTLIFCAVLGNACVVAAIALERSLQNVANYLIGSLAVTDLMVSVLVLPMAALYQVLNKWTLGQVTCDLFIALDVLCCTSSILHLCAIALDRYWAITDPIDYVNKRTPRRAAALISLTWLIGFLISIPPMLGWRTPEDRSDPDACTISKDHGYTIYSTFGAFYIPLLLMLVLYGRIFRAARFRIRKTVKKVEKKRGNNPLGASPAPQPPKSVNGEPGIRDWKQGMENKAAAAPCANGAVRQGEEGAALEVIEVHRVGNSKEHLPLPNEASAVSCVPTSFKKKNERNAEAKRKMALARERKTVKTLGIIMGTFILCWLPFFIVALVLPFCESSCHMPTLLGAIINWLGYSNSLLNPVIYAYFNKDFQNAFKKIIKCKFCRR
Description: radioligand binding, [3H]8-OH-DPAT, porcine cortex-membrane preparations. As to conditions: porcine 5-HT1A, [3H]8-OH-DPAT; average of 2 experiments in triplicate. As for the experimental part:
as §1

Data set [2] concerns 5-HT1A. The data set is described as above. The note with it: ratio of Ki values 5-HT1A/D3. As for the experimental part: as §1
The next data set addresses T6, human D3 (Homo sapiens, UniProt P35462).
T6 construct: expressed in transfected cells
Description: radioligand binding, [3H]spiperone, CHO cell membrane homogenates expressing human D3. The note with it: human D3, [3H]spiperon; average of 2-6 experiments in triplicate. As for the experimental part:
as §2

The next data set addresses T7, human D2short (Homo sapiens, UniProt P14416).
T7 construct: expressed in transfected cells
Description: radioligand binding, [3H]spiperone, CHO cell membrane homogenates expressing human D2short. As to conditions: for Ki: human D2short, [3H]spiperon, average of 2-6 experiments in triplicate; for D3-selectivity D2short/D3: ratio of Ki values D2short/D3. As for the experimental part: as §3

The target in data set [3] is T8, porcine α1-receptor.
T8 construct: Ki-values α1; other: porcine α1, [3H]prazosin; average of 2 experiments in triplicate
Description: radioligand binding, [3H]prazosin, porcine cortex-membrane preparations. The note with it: porcine α1, [3H]prazosin; average of 2 experiments in triplicate. As for the experimental part:
as §1

Data set [4] concerns porcine α1-receptor. The description is as above. As to conditions: ratio of Ki values α1/D3. As for the experimental part:
as §1

T7 sequence (P14416 1-414 isoform P14416-2): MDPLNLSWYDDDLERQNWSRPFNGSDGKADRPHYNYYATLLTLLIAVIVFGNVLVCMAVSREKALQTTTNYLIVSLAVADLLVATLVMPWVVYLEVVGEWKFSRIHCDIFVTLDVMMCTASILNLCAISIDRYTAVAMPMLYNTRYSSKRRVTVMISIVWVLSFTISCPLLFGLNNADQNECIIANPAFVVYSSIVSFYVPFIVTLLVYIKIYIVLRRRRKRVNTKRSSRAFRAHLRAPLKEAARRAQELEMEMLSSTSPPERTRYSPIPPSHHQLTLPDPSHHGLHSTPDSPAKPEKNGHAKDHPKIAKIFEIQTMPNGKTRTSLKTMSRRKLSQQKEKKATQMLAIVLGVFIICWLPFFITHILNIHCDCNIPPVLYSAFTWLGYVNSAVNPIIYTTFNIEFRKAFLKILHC
T1 sequence (P50130 whole entry): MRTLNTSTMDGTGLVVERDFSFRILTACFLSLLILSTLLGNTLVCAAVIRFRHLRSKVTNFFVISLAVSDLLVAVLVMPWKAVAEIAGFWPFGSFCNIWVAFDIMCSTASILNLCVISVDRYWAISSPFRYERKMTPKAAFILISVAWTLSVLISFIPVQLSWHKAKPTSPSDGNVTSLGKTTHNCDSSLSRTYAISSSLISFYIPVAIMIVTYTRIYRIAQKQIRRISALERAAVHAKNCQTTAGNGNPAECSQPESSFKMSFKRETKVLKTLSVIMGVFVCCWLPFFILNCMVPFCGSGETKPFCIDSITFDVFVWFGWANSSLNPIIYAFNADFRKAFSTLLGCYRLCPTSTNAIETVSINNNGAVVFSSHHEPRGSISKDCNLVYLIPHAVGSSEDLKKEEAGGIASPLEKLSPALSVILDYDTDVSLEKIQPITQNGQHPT
T2 sequence (P35462 whole entry): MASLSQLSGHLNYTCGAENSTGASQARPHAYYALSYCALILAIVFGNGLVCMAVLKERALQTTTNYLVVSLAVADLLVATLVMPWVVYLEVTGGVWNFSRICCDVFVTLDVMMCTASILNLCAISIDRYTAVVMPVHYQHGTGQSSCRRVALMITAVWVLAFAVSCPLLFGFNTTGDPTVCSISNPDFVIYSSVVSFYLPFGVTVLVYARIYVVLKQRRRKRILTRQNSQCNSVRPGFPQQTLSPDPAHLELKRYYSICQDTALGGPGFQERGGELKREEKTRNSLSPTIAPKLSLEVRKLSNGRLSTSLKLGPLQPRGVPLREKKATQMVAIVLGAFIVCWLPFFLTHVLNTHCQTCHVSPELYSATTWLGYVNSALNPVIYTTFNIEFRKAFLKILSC
T6 sequence (P35462 whole entry): as above
T4 sequence (P14416 whole entry): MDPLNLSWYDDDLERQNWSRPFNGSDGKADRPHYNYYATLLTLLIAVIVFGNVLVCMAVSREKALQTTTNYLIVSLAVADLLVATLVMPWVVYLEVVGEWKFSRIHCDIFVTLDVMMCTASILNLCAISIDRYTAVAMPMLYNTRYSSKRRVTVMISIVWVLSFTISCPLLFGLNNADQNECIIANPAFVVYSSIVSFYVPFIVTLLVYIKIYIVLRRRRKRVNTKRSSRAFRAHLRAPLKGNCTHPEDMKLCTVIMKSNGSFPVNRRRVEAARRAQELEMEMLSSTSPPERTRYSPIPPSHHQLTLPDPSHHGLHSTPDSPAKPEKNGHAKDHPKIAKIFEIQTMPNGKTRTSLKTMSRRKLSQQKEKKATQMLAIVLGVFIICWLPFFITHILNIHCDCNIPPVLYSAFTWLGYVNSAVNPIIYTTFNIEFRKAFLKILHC
Sequence of 5-HT2 (P50129 whole entry): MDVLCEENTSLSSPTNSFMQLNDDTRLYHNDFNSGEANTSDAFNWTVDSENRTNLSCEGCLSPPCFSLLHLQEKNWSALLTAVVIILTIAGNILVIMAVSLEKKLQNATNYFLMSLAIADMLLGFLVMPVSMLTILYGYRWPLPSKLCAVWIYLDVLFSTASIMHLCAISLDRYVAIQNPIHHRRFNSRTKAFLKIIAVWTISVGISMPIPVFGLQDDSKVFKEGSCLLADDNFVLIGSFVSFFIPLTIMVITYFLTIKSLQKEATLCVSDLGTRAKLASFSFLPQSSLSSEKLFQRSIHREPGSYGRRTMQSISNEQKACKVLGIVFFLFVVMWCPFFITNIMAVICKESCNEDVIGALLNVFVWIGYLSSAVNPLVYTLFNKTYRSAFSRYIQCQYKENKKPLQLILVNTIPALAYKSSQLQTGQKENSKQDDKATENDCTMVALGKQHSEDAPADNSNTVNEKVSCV

The term Ki denotes the dissociation constant of the complex between target and ligand, obtained from inhibition or displacement. Read a low Ki as higher affinity. In general, melting point refers to the temperature, or range, at which the solid turns liquid. In general, EC50 refers to the concentration that produces a half-maximal response. The low end stands for higher potency in that assay, the high end for lower potency in that assay. Compound `COc1ccccc1N1CCN(CCCCNC(=O)c2cc3cccnc3[nH]2)CC1` [Example 1, N-(4-(4-(2-methoxyphenyl)piperazin-1-yl)butyl)-1H-pyrrolo[2,3-b]pyridin-2-ylcarbamide] yielded a melting point of 117 °C. Also, on 5-HT2, the Ki worked out at 340 nM. For the same compound, the affinity at D1-receptor, expressed as Ki, was 1500 nM. At dopamine-D3-receptor, the EC50 was 0.96 nM, the “classification of intrinsic activity at the D3-receptor” value (from here on “classification of intrinsic activity”) was “weakly partially agonistic” and the agonistic activity is listed as 14%. Moreover, on human D4.4-receptor, the Ki was found to be 32 nM and the “D3-selectivity D4.4/D3” value stood at 39. For the same compound, at human D2long, the Ki is 58 nM and the “D3-selectivity D2long/D3” value is on record as 71. The compound also registered a Ki at 5-HT1A [1] of 23 nM. For the same compound, in the data set on 5-HT1A [2], the “D3-selectivity 5-HT1A/D3” value amounted to 28. The compound also yielded an inhibition constant Ki at human D3 of 0.82 nM. In addition, on human D2short, the Ki turned out to be 42 nM and the “D3-selectivity D2short/D3” value turned out to be 51. At porcine α1-receptor [3], this compound gave a Ki of 1.3 nM. In the data set with porcine α1-receptor [4], the “D3-selectivity α1/D3” value is 1.6.
For `O=C(NCCCCN1CCN(c2cccc(Cl)c2Cl)CC1)c1cc2cccnc2n1S(=O)(=O)c1ccccc1` [Example 4, N-(4-(4-(2,3-dichlorophenyl)piperazin-1-yl)butyl)-1-phenylsulfonyl-1H-pyrrolo[2,3-b]pyridin-2-ylcarbamide], the melting point is 82 °C. Besides, at 5-HT2, the Ki amounted to 200 nM and the “D3-selectivity 5-HT2/D3” value was found to be 250. Further, on D1-receptor, the Ki was found to be 680 nM. In addition, at dopamine-D3-receptor, the EC50 was determined as 2.1 nM, the “classification of intrinsic activity” value is “weakly partially agonistic” and the agonistic activity is recorded as 16%. Further, at human D4.4-receptor, the affinity corresponds to a Ki of 110 nM and the “D3-selectivity D4.4/D3” value is 140. At human D2long, the Ki amounted to 68 nM and the “D3-selectivity D2long/D3” value was 85. The same compound returned a Ki on 5-HT1A [1] of 16 nM. Also, in the data set with 5-HT1A [2], the “D3-selectivity 5-HT1A/D3” value is reported as 20. Moreover, the Ki on human D3 is 0.8 nM. In addition, on human D2short, the affinity, expressed as Ki, was 39 nM and the “D3-selectivity D2short/D3” value was determined as 49. On porcine α1-receptor [3], this compound came in with a Ki of 21 nM. In the data set with porcine α1-receptor [4], the “D3-selectivity α1/D3” value is on record as 26.
`O=C(NCCCCN1CCN(c2cccc(Cl)c2Cl)CC1)c1cc2cccnc2[nH]1` [Example 3, N-(4-(4-(2,3-dichlorophenyl)piperazin-1-yl)butyl)-1H-pyrrolo[2,3-b]pyridin-2-ylcarbamide]: the melting point was 232 °C. Besides, on 5-HT2, the Ki turned out to be 63 nM and the “D3-selectivity 5-HT2/D3” value was determined as 480. This compound registered a Ki at D1-receptor of 440 nM. For the same compound, on dopamine-D3-receptor, the EC50 came out at 1.3 nM, the “classification of intrinsic activity” value was “partial agonist” and the agonistic activity is 41%. Moreover, on human D4.4-receptor, the Ki came out at 42 nM and the “D3-selectivity D4.4/D3” value was 320. Further, at human D2long, the Ki turned out to be 19 nM and the “D3-selectivity D2long/D3” value amounted to 150. The compound further returned a Ki at 5-HT1A [1] of 24 nM. Moreover, the “D3-selectivity 5-HT1A/D3” value in the data set with 5-HT1A [2] was 180. The Ki at human D3 came to 0.13 nM. Further, at human D2short, affinity was put at a Ki of 6.5 nM and the “D3-selectivity D2short/D3” value was determined as 34. At porcine α1-receptor [3], this compound showed a Ki of 3.6 nM. Besides, in the data set on porcine α1-receptor [4], the “D3-selectivity α1/D3” value was 28.
`COc1ccccc1N1CCN(CCCCNC(=O)c2cc3cccnc3n2S(=O)(=O)c2ccccc2)CC1` [Example 2, N-(4-(4-(2-methoxyphenyl)piperazin-1-yl)butyl)-1-phenylsulfonyl-1H-pyrrolo[2,3-b]pyridin-2-ylcarbamide]: the melting point was found to be 166 °C. At 5-HT2, the affinity corresponds to a Ki of 1100 nM and the “D3-selectivity 5-HT2/D3” value is 120. The compound further came in with a Ki at D1-receptor of 1300 nM. Besides, on dopamine-D3-receptor, a half-maximal response (EC50) required 7.9 nM, the “classification of intrinsic activity” value is listed as “weakly partially agonistic” and the agonistic activity stood at 12%. Moreover, on human D4.4-receptor, the Ki was 130 nM and the “D3-selectivity D4.4/D3” value came to 14. For the same compound, on human D2long, affinity was put at a Ki of 180 nM and the “D3-selectivity D2long/D3” value is 19. Moreover, at 5-HT1A [1], affinity was put at a Ki of 14 nM. In addition, in the data set on 5-HT1A [2], the “D3-selectivity 5-HT1A/D3” value was 1.5. At human D3, this compound displayed a Ki of 9.3 nM. At human D2short, the Ki turned out to be 110 nM and the “D3-selectivity D2short/D3” value is reported as 12. This compound yielded a Ki at porcine α1-receptor [3] of 4.6 nM. Moreover, in the data set on porcine α1-receptor [4], the “D3-selectivity α1/D3” value is listed as 0.49.
